According to US8629178B2, “Sodium tanshinone IIA sulfonate hydrate and preparation method and use thereof” (priority 2009, dated 2014):

Key:
Hygroscopicity test = format: physicochemical; conditions: 25° C.; for Relative to 0 h, weight gain %: relative humidity 75%, sampling time 48 h
Excerpt: The hygroscopicity test performed according to the Pharmacopoeia of the People's Republic of China (2005 Edition) confirmed that the sodium tanshinone IIA sulfonate hydrate of the present invention is much lower than anhydrous sodium tanshinone IIA sulfonate.
Samples of sodium tanshinone IIA sulfonate hydrates and anhydrous sodium tanshinone IIA sulfonate: anhydrous sodium tanshinone IIA sulfonate and the hydrates of the present invention, about 5 g for each, were placed in dry watch glass with constant weight, precisely weighed, subjected to the test at 25° C. and a relative humidity (RH) of 75%, separately sampled at 0 h and 48 h of the test, and the percentages of weight gain due to hygroscopicity was calculated.

[1] = Accelerated stability test (increase of the relative substances by HPLC); format: physicochemical; conditions: RH75%, 30° C., lucifuge, sealed in ampoules, sampling time 6 month
Experimental: In addition, the accelerated stability test performed according to the Pharmacopoeia of the People's Republic of China (2005 Edition) confirmed that the sodium tanshinone IIA sulfonate hydrate crystal had better storage stability than anhydrous sodium tanshinone IIA sulfonate, and thus can be stably stored for a more longer period.
Under RH75%, 30° C. and lucifuge condition, the samples of sodium tanshinone IIA sulfonate hydrate crystals and anhydrous sodium tanshinone IIA sulfonate were separately sealed in ampoules for accelerated stability test, chromatographic conditions: column Kromasil C18 (250 mm×4.6 mm, 5 μm), mobile phase: methanol—0.02 mol/L potassium dihydrogen phosphate solution (adjusted with phosphoric acid to pH=4) (60:40), detection wavelength: 271 nm, flow rate: 1 ml/min, to measure increase extent of the relative substances (see results in Tables 1-2).

[2] = system: calcium paradox cardiac muscle tissue; experiment: Protection effects on calcium paradox cardiac muscle (ex vivo heart perfusion, Langendorff); set-up: species or system guinea pigs; conditions: hydrates 32 mg/L, Iproveratril 2.1 mg/L; for Calcium uptake, x ± S μmol/min/g, dry weight: cardiac muscle tissue; for Calcium uptake, x ± S μmol/min/g, dry weight / Protein release, x ± S mg/min/g, dry weight: 8 guinea pigs per group; for Protein release, x ± S mg/min/g, dry weight: coronary artery effluent of 20 min after calcium restored; for Calcium uptake decrease rate, % / Protein release decrease rate, %: relative to calcium paradox group
Experimental: 48 Healthy guinea pigs, body weight 280-360 g, were divided into 6 groups, 8 guinea pigs per group, separately comprising: normal control group, calcium paradox group, iproveratril positive control group, 3 drug-administrated groups, the animals were fasted for one night before test, intraperitoneally injected with heparin 0.5 mg/kg, intraperitoneally injected with pentobarbital sodium 30 mg/kg after 20 min, their chests were opened after anesthesia, and hearts were taken out quickly, immersed in Kreb's-Henseleit (K-H) perfusion solution as cooled with ice, after aortic cannulation, the hearts were placed in ex vivo heart perfusion device with constant temperature and constant pressure. […] The effluent of coronary artery of 20 min when calcium-containing perfusion solution was restored was collected, the protein release amounts mg/min/g drywt and cardiac muscle tissue calcium uptake μmol/g drywt in the collected coronary artery effluents were measured according to the reference document.

[3] = system: arrhythmia induced by calcium chloride in rats; experiment: Effects on arrhythmia induced by calcium chloride in rats; format: in vivo, SD rats; conditions: intravenous injection, 10 animals per group, 2.5% calcium chloride 100 mg/kg, hydrates 10 mg/kg, Quinidine 13.5 mg/kg
Experimental: 50 SD rats were provided, male and female, body weight 226±31 g, randomly divided into 5 groups, separately administered by intravenous injection with physiological saline, Quinidine, […] The rats were anaesthetized with 3% pentobarbital sodium 40 mg·kg^−1, fixed in supine position on operation table, injected via lingual vein for 6 minutes, quickly intravenously injected (completed injection in 5 s) with 2.5% calcium chloride 100 mg·kg^−1 (0.4 ml/100 g), the number of animal with ventricular fibrillation and the number of died animals were recorded.

[4] = system: ischemic reperfusion brain tissues of rats; experiment: Effects on rat ischemic reperfusion (NO, NOS, MDA, SOD in brain tissue); format: in vivo, Wistar rats; conditions: for Result of the ischemic reperfusion test in words: compared with sodium tanshinone IIA sulfonate 1.5 hydrate
Experimental: 36 Male Wistar rats, body weight 250-300 g, were randomly divided into 3 groups: sham operation group, ischemic reperfusion group, and group of drug of the invention, 12 rats per group. As for group of drug of the invention: the rats were peritoneally administered with sodium tanshinone IIA sulfonate 1.5 hydrate in physiological saline, does of 40 mg/kg, twice per day, for consecutive 7 days, and subjected to cerebral ischemia operation 60 min after the last administration; the rats of sham operation group and ischemic reperfusion group were administered with the same volume of isometric physiological saline, respectively.
The rats were anesthetized with 10% chloral hydrate (3.5 ml/kg) by peritoneal injection, fixed in supine position, modeled by the improved Zea Longa thread occlusion method in document [Journal of Shanghai Jiaotong University (Medicine), 2007, 27(10):1218-1222]; in the sham operation group, thread was merely inserted 10 mm, and other steps were the same as the model group, animals appeared operation-side Horner syndrome and opposite-side movement disorder were deemed as successfully established models. After successful establishment of models, the animals were administered in the same dose as above twice per day, and the sham operation group and ischemic reperfusion group were administered with the same volume of isometric physiological saline, respectively. The thread was drawn out 2 h after model establishment, the rats were executed 24 h after reperfusion, their brains were taken out quickly and weighed. Physiological saline was used to prepare 10% brain tissue homogenate solution at low temperature, centrifuged at low temperature, 3000 r/min for 10 min, the deposit was discarded, the supernatant was taken up and tested to determine SOD, MDA, NO, NOS contents or activities according to the specifications of the corresponding commercial SOD, MDA, NO, NOS kits, the results are shown in Table 4.

[5] = rat brain tissue homogenate, 40 mg/kg peritoneally twice per day, 2 h ischemia, 24 h reperfusion

Row | Relative to 0 h, weight gain % (Hygroscopicity test) | Hygroscopicity in words (Hygroscopicity test; compared with the sodium tanshinone IIA sulfonate hydrates, RH 75%, 48 h) | Relative to 0 month, multiple of the relative substances [1] | Compound | Calcium uptake, x ± S μmol/min/g, dry weight [2] | Protein release, x ± S mg/min/g, dry weight [2] | Calcium uptake decrease rate, % [2] | Protein release decrease rate, % [2] | Arrhythmic animal number (n), Heart arrest [3] | Arrhythmic animal number (n), Ventricular fibrillation [3] | Result of the ischemic reperfusion test in words [4] | MDA [4, 5] | NO [4, 5] | NOS [4, 5] | SOD [4, 5]
1 | 11.43% | much higher | 1.21 | Cc1c(S(=O)(=O)[O-])oc2c1C(=O)C(=O)c1c-2ccc2c1CCCC2(C)C.[Na+] [Anhydrous Sodium Tanshinone IIA Sulfonate, reference compound] |  |  |  |  |  |  |  |  |  |  | 
2 | 4.12% |  | 0.25 | Sodium Tanshinone IIA Sulfonate 1.5 Hydrate | 35.2 ± 2.8 μmol/min/g, dry weight | 2.4 ± 0.3 mg/min/g, dry weight | 26.1% | 52% | 6 n | 5 n |  | 2.26 ± 0.62 nmol/mL | 24 ± 6.35 µmol/L | 22 ± 5.31 U/ml | 245 ± 21.59 U/ml
3 | 1.25% |  | 0.31 | Sodium Tanshinone IIA Sulfonate 2.5 Hydrate | 35.4 ± 3.1 μmol/min/g, dry weight | 2.5 ± 0.2 mg/min/g, dry weight | 25.6% | 50% | 5 n | 6 n | results similar to those of the sodium tanshinone IIA sulfonate 1.5 hydrate |  |  |  | 

The next lines start with the compound.

Row | Compound | Relative to 0 h, weight gain % (Hygroscopicity test) | Hygroscopicity in words (Hygroscopicity test; compared with the sodium tanshinone IIA sulfonate hydrates, RH 75%, 48 h) | Relative to 0 month, multiple of the relative substances [1] | Calcium uptake, x ± S μmol/min/g, dry weight [2] | Protein release, x ± S mg/min/g, dry weight [2] | Calcium uptake decrease rate, % [2] | Protein release decrease rate, % [2] | Arrhythmic animal number (n), Heart arrest [3] | Arrhythmic animal number (n), Ventricular fibrillation [3] | Result of the ischemic reperfusion test in words [4] | MDA [4, 5] | NO [4, 5] | NOS [4, 5] | SOD [4, 5]
4 | COc1ccc(CCN(C)CCCC(C#N)(c2ccc(OC)c(OC)c2)C(C)C)cc1OC (stereo not drawn) [Iproveratril, reference compound] |  |  |  | 36.9 ± 2.5 μmol/min/g, dry weight | 2.6 ± 0.2 mg/min/g, dry weight | 22.5% | 48% |  |  |  |  |  |  | 
5 | C=C[C@H]1C[N@@]2CC[C@H]1C[C@@H]2[C@@H](O)c1ccnc2ccc(OC)cc12 [Quinidine, reference compound] |  |  |  |  |  |  |  | 4 n | 6 n |  |  |  |  | 
6 | Sodium Tanshinone IIA Sulfonate 0.5 Hydrate | 7.96% |  | 0.34 | 34.5 ± 2.4 μmol/min/g, dry weight | 2.4 ± 0.2 mg/min/g, dry weight | 27.5% | 52% | 4 n | 5 n | results similar to those of the sodium tanshinone IIA sulfonate 1.5 hydrate |  |  |  | 
